Experiments:
ICR mice = test: Forced swimming test (FST), immobility time; format: in vivo; conditions: male ICR mice, mean±SEM
Procedure: Male ICR mice (3 weeks old) weighing 10-12 g were purchased from the Dae-Han Experimental Animal Center (Daejeon, Republic of Korea), and subsequently maintained at the College of Korean Medicine, Kyung Hee University. Animals were housed 5-10% in as laminar air-flow room maintained at a temperature of 22±1° C. and a relative humidity of 55±10% under a 12:12 L/D cycle light (on at 7:00 h) throughout the study. Food and water were provided ad libitum. All manipulations were carried out between 9:00 and 16:00 h and no animal was used more than once.
Mice were exposed to JDS music daily for 3 weeks. All experiments were carried out in a quite environment other sounds.
After measuring immobility times, 10 mice were allocated to each of the five study groups in an immobility time-matched manner. […] The FST was performed as the end of the 3 weeks administration period. During the 6 min FST, immobility times were measured as described by Porsolt et al. (1977). The FST apparatus consisted of two Plexiglas cylinders (height: 25 cm, diameter: 10 cm) placed side by side in a Makrolon cage filled with water at 23-25° C. […] Total duration of immobility, during the 4 min period from 2 to 6 min was recorded. […]

DA = DA level in brain after FST (DA ELISA kit); format: in vivo, mice; conditions: mouse brain after FST, 10 mg/kg orally once daily for 3 weeks, versus untreated control group, p<0.05
Procedure: Supernatants were collected and stored at −70° C.

BDNF = BDNF expression in brain, Western blot; format: in vivo, mice; conditions: mouse brain after FST, 10 mg/kg orally once daily for 3 weeks, versus untreated control group
Procedure: (§1) Immediately after the FST, mice were sacrificed, brains were rapidly removed, and frozen in liquid nitrogen. Samples were dissected and homogenized in ice-cold buffer supplemented with 0.2 mM DTT, 0.5 mM sodium vanadate, and protease inhibitors. NaCl was then added to a final concentration of 0.45 M, and homogenates were centrifuged at 15,000×g for 30 min. Supernatants were collected and stored at −70° C. Samples were subjected to Western blot analysis for ERK, phosphorylated-ERK (PERK), BDNF, and GAPDH. Supernatant samples obtained as described above were heated at 95° C. for 5min and briefly cooled on ice. After centrifugation, 50 μg aliquots were resolved by 12% SDS-polyacrylamide gel electrophoresis. Proteins were then transferred to nitrocellulose membranes, which were blocked for 2 h with phosphate-buffered saline (PBS) containing Tween-20 (PBST) containing 6% bovine serum albumin. Membranes were incubated overnight at 4° C. with primary antibodies diluted 1:500 with PBST, and washed nine times for 10 min with PBST. For protein detection, blots were incubated with secondary antibodies conjugated peroxidase (1:5000) for 2 h. Finally, protein bands were visualized using an enhanced chemiluminescence kit (GE Healthcare, Piscataway, N.J., USA) according to the manufacturer's instructions.

pERK = test: ERK phosphorylation in brain, Western blot; format: in vivo, mice; conditions: mouse brain after FST, 10 mg/kg orally once daily for 3 weeks, p<0.05
Procedure: as §1

Compound: CNCCC(Oc1ccc(C(F)(F)F)cc1)c1ccccc1 (centres unmarked) [fluoxetine, Fluoxetine]
- Mean immobility time after the 3-week treatment period (ICR mice; 10 mg/kg orally once daily for 3 weeks, untreated control 199.3±11.8 s, p<0.05): 60.4 ± 14.3 s
- Mean baseline immobility time (ICR mice; baseline (0 day), before treatment): 94.2 ± 23.9 s
- DA level in brain (DA): significantly higher than in the untreated control group
- BDNF level (BDNF): significantly increased BDNF levels
- pERK level (pERK): significantly elevated pERK levels

Source: patent publication US20160296722A1, “METHOD OF TREATING DEPRESSION” (Korea Bio Medical Science Institute, priority 2015, published 2016)
